Laboratory results taken from patent US20210024649A1, “Methods and Compositions for Antibody and Antibody-loaded Dendritic Cell Mediated Therapy” (The Board of Trustees of the Leland Stanford Junior …, priority 2014, published 2021).

Tested on: tumor-associated DC (TADC)
Assay: TADC cultured with alloIgG-IC with or without stimuli
Assay type: cell-based, mouse
Details: stimulus added to TADC with alloIgG-IC
Experimental: BM mononuclear cells were negatively selected using a murine monocyte enrichment kit (Stem Cell Technologies, Vancouver Canada), and FSC^lo/SSC^lo/Gr1^hi/CD115^hi/MHCII^neg cells were sorted with a FACS Aria II (BD Biosciences). Monocytes were cultured for 4-5 days in the presence of 50 ng/ml GM-CSF (PeproTech) to generate DC. For TADC, tumors were digested in Hank's balanced salt solution (HBSS, Gibco) containing 5 mg/mL collagenase IV and 0.01 mg/mL DNase I (Sigma). Cells were applied on a Ficoll gradient and magnetically enriched using CD11b^+ selection kits (StemCells) and Gr1^neg/CD11c^+/MHCII^+ cells were sorted by FACS. In some experiments TADC were activated with 50 ng/mL TNFα (PeproTech) and 500 ng/mL CD40L (PeproTech) recombinant mouse proteins.
To resolve this apparent discrepancy, tumor-associated DC (TADC) (FIG. 7a) were obtained and cultured these cells with tumor lysates or alloIgG-IC. […] Since the expression pattern of Fcγ receptors on TADC was similar to that of BMDC, and several immune stimuli are known to induce MAPK activation in DC, the effect of such stimuli on the response of TADC to allogG-IC was tested.

**Q.** “polyinosinic:polycytidylic acid [poly I:C]” was tested. Which “activation of TADC and uptake of alloIgG-IC” value did it give?
**A.** enabled activation of TADC as well as uptake of alloIgG-IC
